pIC50: −log10 of the molar value. Like-named read-outs stand apart in the source and are kept apart here. Some results are limits rather than exact numbers.

The target in test [1] is T1, cAMP phosphodiesterase 3 from human platelets (Homo sapiens, UniProt Q14432).
T1 construct: from tissue; host or cells: human platelets, cytoplasmic extract
Nature of the test: Inhibition of cAMP phosphodiesterase 3 from human platelets. It is filed as biochemical. As to conditions: for inhibition at 100 µM: PDE3. Put shortly:
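Partially purified human platelet extract used as PDE3 source with cAMP as substrate, so cGMP-preferring PDE2 and PDE5 present in platelets go undetected. IBMX served as positive control.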

In test [2] the test system is tail skin allograft rejection (C57BL/6 donor, BALB/c recipient mice). The experiment in a line: Murine tail skin allograft transplantation model. It is filed as in vivo, mouse. As to conditions: 10 mg/kg i.p. twice daily; for Average graft survival: from one day prior to and for 15 days after transplantation; for # grafts surviving beyond 16 days p.t.: five mice per group. As for the experimental part:
Tail skin from donor H-2 b C57BL/6 mice was transplanted onto recipient female H-2^d BALB/c mice (Lagodzinski, Z. et al., Immunology 71:148-150 (1990)). Five mice were included per group. […] Test compounds and CsA were administered twice daily intraperitoneally at a dose of 10 mg/kg beginning at one day prior to transplantation and for 15 days after transplantation, including the day of transplantation. Mice were monitored and scored daily over 15 days post transplantation for graft rejection.
Skin allograft rejection is primarily mediated by T lymphocytes with little evidence for a major role of antibodies under most circumstances. Skin allograft rejection requires the activation of helper and cytotoxic effector T cell populations. Graft rejection was assessed by monitoring allograft necrosis. Because tail skin is visibly distinct from the surrounding trunk skin of the mouse, the course of rejection can be easily monitored. Fully intact grafts were scored as 100%. Complete graft rejection was defined as >90% graft necrosis. Acute graft rejection generally proceeds via a series of visually obvious events beginning with swelling and erythema of the graft. These events are followed by graft desiccation and scab formation over most or all of the graft, signaling the loss of the viable graft tissue. Scab formation is subsequently followed by shrinkage and scar formation.

The target of a further test is T2, PDE 2 (human platelets) (Homo sapiens, UniProt O00408).
T2 construct: PDE's for the various assays were partially purified from the following cells/tissues; tissue MDS Panlabs (assay service); host or cells: human platelets
The experiment in a line: PDE isozyme specificity: PDE 2. It is filed as biochemical. As to conditions: for inhibition at 100 µM: PDE2, X marks this range. From the text: (§1) Compound 12 was screened for activity against 5 of the major classes of mammalian cyclic nucleotide phosphodiesterase (termed PDE 1 through 5). PDE's 1 through 4 utilize cAMP as substrate while PDE 5 uses cGMP. The broad specificity PDE inhibitor 3-isobutyl-1-methylxanthine (IBMX; Sigma; Catalogue No. 17018)) was used as a positive control in all assays. PDE's for the various assays were partially purified from the following cells/tissues; PDE 1 (bovine heart), PDE 2 (human platelets), PDE 3 (human platelets), PDE 4 (human promonocytic U937 cells) and PDE 5 (human platelets).
(§2) Test compounds (at 100 μM) were screened for activity against PDE 1,2 and 5, using standard biochemical methods performed at MDS Panlabs (Bothell, Wash., USA). The broad specificity PDE inhibitor 3-isobutyl-1-methylxanthine (IBMX) was used as a positive control in all assays. PDE's for the various assays were partially purified from the following cells/tissues; PDE 1 (bovine heart), PDE 2 (human platelets) and PDE 5 (human platelets). For purposes of comparison, the effects on PDE3 (human platelets) and PDE4 (human U937 monocytic cell line) described above are presented again in Table 12.

A further test has as its target PDE 1 (bovine heart) (Bos taurus, UniProt P14100). Nature of the test: PDE isozyme specificity: PDE 1. It is filed as biochemical.
Excerpt: as §1, §2

Test [3] concerns cAMP Phosphodiesterase 4 from Human U937 Cells. The experiment in a line: Inhibition of cAMP phosphodiesterase 4 from human U937 cells. It is filed as biochemical. As for the experimental part:
PDE's 1 through 4 utilize cAMP as substrate while PDE 5 uses cGMP. […] PDE's for the various assays were partially purified from the following cells/tissues; PDE 1 (bovine heart), PDE 2 (human platelets), PDE 3 (human platelets), PDE 4 (human promonocytic U937 cells) and PDE 5 (human platelets).
Sonicated cell extracts were then centrifuged at 70,000 g for 30 minutes and supernatants removed. Sucrose was added to a final concentration of 0.25 M, aliquoted and stored at −80° C.
PDE reactions were performed for 30 minutes at 37° C. in 20 μL volumes in 1 μM [^3H] cAMP (Amersham website http://www.apbiotech.com), 0.5 U/mL 5′ nucleotidase (Sigma), 50 mM Tris Cl, 10 mM MgCl pH 7.5. U937 extract was added such that less than 10% of substrate was consumed. Test compound or vehicle was added to the desired concentration. […] Reactions were performed in duplicate. Reactions were terminated by addition of 200 μL Dowex 1-8400 Cl^− anion exchange resin in a ratio of 1 resin: 2 methanol: 1H2O. Samples were mixed by inversion and then allowed to settle for 2-3 hours.

Test [4] has as its system primary human neutrophils. Nature of the test: fMLP-induced human neutrophil chemotaxis. It is filed as cell-based. The settings on record: for IC50: fMLP-induced chemotaxis, X marks this range, read-out: IC50 RANGE (μM) 10-100. As for the experimental part:
Chemotaxis buffer containing the chemoattractant fMLP (10 μM) was added to each well of a chemotaxis plate and a filter was inserted ensuring contact between the filter and the chemotaxis buffer in the well. A submaximal concentration of chemoattractant was used which had been determined in previous experiments. […] Freshly isolated neutrophils (1×10^6) were incubated with vehicle (0.125% DMSO)±test compound for 1 hr at 37° C. Treatment and control cell suspensions were then gently resuspended and 20 μL of cells was added to the top side of the filter on each well. The plate was incubated for 1.5 hours at 37° C. under 5% CO2. Cells were then removed from the top side of the filter by aspiration and the entire plate was centrifuged. The filter was removed and known concentrations of cells were added to unused wells to prepare a standard curve. XTT (Sigma; Catalogue No. X 4251)/PMS (Sigma; Catalogue No. P 7626) solution prepared in buffer was added to each well and the cells were further incubated 1-2 hours and measured for absorbance at 450 nm. Absorbance values were converted to cell numbers using the standard curve. IC50 values are averages from at least three separate experiments with triplicate determinations.

[5] abbreviates: PDE3, platelet cell extract, X marks this range, read-out: IC50 range (μM) 1-10.
The mark [6] stands for this setting: PDE3, platelet cell extract, X marks this range, read-out: IC50 range (μM) 10-100.
Setting [7] is: read-out: % inhibition by 100 μM test compound 50-75, PDE1, X marks this range.
Setting [8] is: read-out: % inhibition by 100 μM test compound 25-50.

Sequence of PDE 1 (bovine heart) (P14100 35-530): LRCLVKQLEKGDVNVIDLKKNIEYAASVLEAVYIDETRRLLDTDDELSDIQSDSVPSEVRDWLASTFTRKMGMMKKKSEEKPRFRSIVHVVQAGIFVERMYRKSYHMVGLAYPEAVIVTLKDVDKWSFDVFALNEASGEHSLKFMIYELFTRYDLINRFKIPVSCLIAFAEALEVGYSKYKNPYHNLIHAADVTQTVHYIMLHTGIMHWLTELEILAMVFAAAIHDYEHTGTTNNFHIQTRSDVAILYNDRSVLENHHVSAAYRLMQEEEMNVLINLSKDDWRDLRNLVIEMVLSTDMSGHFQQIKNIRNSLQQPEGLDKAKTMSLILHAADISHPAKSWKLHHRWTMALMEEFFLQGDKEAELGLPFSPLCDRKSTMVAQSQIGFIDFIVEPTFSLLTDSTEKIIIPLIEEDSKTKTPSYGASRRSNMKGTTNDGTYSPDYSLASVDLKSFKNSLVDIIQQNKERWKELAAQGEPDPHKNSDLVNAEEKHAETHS
T2 sequence (O00408 whole entry): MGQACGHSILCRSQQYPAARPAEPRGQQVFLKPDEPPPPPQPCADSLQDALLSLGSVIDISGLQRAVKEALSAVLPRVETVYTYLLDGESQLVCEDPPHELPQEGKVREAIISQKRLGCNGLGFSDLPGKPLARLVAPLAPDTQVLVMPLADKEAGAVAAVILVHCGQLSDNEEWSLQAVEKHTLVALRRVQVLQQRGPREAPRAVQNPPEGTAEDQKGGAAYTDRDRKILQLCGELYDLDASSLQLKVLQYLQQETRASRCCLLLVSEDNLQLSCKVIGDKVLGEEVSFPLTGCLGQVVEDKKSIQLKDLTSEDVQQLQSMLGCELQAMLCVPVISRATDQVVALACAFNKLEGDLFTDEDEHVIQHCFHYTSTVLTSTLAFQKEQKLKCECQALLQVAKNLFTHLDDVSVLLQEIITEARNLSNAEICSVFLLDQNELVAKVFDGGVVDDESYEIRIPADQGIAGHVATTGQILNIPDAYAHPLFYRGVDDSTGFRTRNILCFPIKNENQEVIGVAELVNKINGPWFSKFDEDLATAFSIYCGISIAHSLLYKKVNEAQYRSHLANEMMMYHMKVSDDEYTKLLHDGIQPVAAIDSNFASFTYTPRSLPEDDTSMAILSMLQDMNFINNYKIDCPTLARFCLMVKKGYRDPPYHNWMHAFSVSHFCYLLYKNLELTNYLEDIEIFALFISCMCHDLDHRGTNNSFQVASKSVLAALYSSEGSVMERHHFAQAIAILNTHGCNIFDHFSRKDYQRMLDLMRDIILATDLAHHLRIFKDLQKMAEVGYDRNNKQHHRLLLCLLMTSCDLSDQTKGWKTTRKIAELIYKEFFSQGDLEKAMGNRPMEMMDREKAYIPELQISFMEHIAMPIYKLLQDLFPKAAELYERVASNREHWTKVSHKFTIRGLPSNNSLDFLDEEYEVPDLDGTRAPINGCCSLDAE
T1 sequence (Q14432 whole entry): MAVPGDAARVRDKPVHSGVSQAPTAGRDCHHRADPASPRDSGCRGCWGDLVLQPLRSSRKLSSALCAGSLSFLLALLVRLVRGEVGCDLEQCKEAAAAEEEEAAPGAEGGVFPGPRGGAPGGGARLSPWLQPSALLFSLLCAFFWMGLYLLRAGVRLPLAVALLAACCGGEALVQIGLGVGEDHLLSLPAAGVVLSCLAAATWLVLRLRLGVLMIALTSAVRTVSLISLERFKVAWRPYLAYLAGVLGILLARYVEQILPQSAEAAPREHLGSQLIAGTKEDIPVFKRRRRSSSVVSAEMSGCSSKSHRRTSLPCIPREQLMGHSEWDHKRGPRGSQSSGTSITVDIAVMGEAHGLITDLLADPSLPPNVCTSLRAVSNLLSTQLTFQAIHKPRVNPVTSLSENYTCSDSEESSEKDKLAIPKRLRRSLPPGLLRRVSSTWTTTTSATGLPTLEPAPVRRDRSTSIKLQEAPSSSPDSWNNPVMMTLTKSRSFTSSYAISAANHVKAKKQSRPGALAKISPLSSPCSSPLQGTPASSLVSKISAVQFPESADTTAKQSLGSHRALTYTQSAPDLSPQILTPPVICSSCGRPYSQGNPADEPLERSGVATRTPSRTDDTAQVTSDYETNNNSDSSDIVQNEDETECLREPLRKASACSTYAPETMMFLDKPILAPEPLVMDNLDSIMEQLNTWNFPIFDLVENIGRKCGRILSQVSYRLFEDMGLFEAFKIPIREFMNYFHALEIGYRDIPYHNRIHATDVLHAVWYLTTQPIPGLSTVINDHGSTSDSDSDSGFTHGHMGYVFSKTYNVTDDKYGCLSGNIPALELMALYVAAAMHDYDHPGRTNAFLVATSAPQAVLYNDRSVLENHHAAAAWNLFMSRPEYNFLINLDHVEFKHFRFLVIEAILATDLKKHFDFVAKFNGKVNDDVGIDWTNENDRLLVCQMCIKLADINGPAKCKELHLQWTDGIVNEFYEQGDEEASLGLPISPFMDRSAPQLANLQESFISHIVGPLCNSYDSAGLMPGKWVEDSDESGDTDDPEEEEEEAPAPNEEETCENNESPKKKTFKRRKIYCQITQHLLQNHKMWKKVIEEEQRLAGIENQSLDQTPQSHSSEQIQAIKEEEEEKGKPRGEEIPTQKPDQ

As to `COc1ccc([C@H]2CNC(=O)C(Cc3ccc(OCc4ccccc4)c(OC)c3)C2)cc1OC` (stereo partly drawn) [Compound 54], the IC50 in test [1] (setting [5]) was 1 to 10 µM. Also, in test [2], the “Average graft survival” value turned out to be 11.5 ± 3.3 days, the “Allograft survival rate (% at 9 days post-transplant)” value is on record as 75% and the “# grafts surviving beyond 16 days p.t.” value was 0.
Take `COc1cc(CC2C[C@@H](c3ccc(OC)c(OC)c3)CNC2=O)ccc1O` (stereo partly drawn) [Compound 55]: in test [1] (setting [5]), the concentration for half-maximal inhibition (IC50) is 1 to 10 µM.
Turning to `COc1cc(CC2C[C@@H](c3ccc(OC)c(OC4CCCC4)c3)COC2=O)ccc1O` (stereo partly drawn) [Compound 43], the IC50 in test [1] (setting [6]) was in the range of 10 to 100 µM. Moreover, the inhibition at 100 µM in test [1] (read-out: % inhibition by 100 μM test compound 75-100, X marks this range) lay in the range of 75 to 100%; at PDE 2 (human platelets) (read-out: % inhibition by 100 μM test compound 50-75) it was 50 to 75%; at PDE 1 (bovine heart) (setting [7]), 50 to 75%. In test [3] (read-out: IC50 against the catalytic activity of PDE4), the pIC50 was 6.59.
As for `COc1cc(C[C@@H]2C[C@@H](c3ccc(OC)c(OC)c3)COC2=O)ccc1O` [Compound 30], the IC50 was 10 to 100 µM in test [1] (setting [6]); 10 to 100 µM in test [4]; 1 to 10 µM in test [3] (PDE4 from U937 extract, 1 μM [3H] cAMP, X marks this range, read-out: IC50 range (μM) 1-10).
`COc1cc(CC2C[C@@H](c3ccc(OC)c(OC4CCCC4)c3)CNC2=O)ccc1O` (stereo partly drawn) [Compound 62]: in test [1] (setting [5]), the IC50 lay within 1 to 10 µM.
For `COc1cc(C[C@@H]2CC(c3ccc(OC)c(OC)c3)COC2=O)ccc1O` (mixture of isomers) [Compound 12], the pIC50 is 4.35 in test [1] (human platelets, read-out: IC50 PDE 3) and 5.23 in test [3] (human promonocytic U937 cells, read-out: IC50 PDE 4). In addition, the inhibition at 100 µM in test [1] (read-out: % inhibition by 100 μM test compound 50-75, X marks this range) lay within 50 to 75%; at PDE 2 (human platelets) (setting [8]), 25 to 50%; on PDE 1 (bovine heart) (setting [7]) it was 50 to 75%. The “inhibitory effect on PDE 2” value against PDE 2 (human platelets) (human platelets) is listed as “no significant inhibitory effects”. For the same compound, the IC50 in test [4] fell in the range of 10 to 100 µM.
In the case of `COc1ccc(C2CNC(=O)C2)cc1OC1CCCC1` (stereo not drawn) [Rolipram, reference compound], the “effect in PDE3 assay” value in test [1] (platelet cell extract, cAMP as substrate) was “without effect”. This compound also gave an inhibition at 12.5 µM in test [4] (at 12.5 μM, positive control) of 85%. In test [2], the “Average graft survival” value is 11.5 ± 3.7 days, the “Allograft survival rate (% at 9 days post-transplant)” value is listed as 50% and the “# grafts surviving beyond 16 days p.t.” value is recorded as 1.
Regarding `COc1ccc([C@@H]2CCC(=O)OC2)cc1OC1CCCC1` [Compound 41], the pIC50 in test [1] (PDE3, platelet cell extract, X marks this range) was below 4.00. The inhibition at 100 µM in test [1] (read-out: % inhibition by 100 μM test compound 25-50, X marks this range) lay within 25 to 50%. On PDE 2 (human platelets) (setting [8]), the inhibition at 100 µM lay in the range of 25 to 50%. Moreover, the inhibition at 100 µM on PDE 1 (bovine heart) (read-out: % inhibition by 100 μM test compound 1-25, PDE1, X marks this range) lay in the range of 1 to 25%. For the same compound, in test [2], the “Average graft survival” value worked out at 11.6 ± 4.6 days, the “Allograft survival rate (% at 9 days post-transplant)” value is reported as 60% and the “# grafts surviving beyond 16 days p.t.” value turned out to be 1.

As usually defined, the IC50 is the concentration that gives 50% inhibition. By inhibition is commonly meant the change of the read-out against control, counted positive when it falls. As usually defined, the pIC50 is the IC50 on a negative log10 scale, so that one unit is a factor of ten.

Values taken from US20030186943A1, “Substituted gamma-phenyl-delta-lactams and uses related thereto” (Inflazyme Pharmaceuticals Ltd., priority 1998, published 2003).
